Laboratory results: patent US8779140B2, “Crystal of fused pyridine compound salt” (Astellas Pharma Inc., priority 2010, dated 2014)
Blank lines part the entries; values can stand above or below the compound they belong to.

Key:
[1] = target: T1, JAK3 (Homo sapiens, UniProt P52333); conditions: as described in Patent Document 1; cited from earlier work
T1 sequence (P52333 1-1124): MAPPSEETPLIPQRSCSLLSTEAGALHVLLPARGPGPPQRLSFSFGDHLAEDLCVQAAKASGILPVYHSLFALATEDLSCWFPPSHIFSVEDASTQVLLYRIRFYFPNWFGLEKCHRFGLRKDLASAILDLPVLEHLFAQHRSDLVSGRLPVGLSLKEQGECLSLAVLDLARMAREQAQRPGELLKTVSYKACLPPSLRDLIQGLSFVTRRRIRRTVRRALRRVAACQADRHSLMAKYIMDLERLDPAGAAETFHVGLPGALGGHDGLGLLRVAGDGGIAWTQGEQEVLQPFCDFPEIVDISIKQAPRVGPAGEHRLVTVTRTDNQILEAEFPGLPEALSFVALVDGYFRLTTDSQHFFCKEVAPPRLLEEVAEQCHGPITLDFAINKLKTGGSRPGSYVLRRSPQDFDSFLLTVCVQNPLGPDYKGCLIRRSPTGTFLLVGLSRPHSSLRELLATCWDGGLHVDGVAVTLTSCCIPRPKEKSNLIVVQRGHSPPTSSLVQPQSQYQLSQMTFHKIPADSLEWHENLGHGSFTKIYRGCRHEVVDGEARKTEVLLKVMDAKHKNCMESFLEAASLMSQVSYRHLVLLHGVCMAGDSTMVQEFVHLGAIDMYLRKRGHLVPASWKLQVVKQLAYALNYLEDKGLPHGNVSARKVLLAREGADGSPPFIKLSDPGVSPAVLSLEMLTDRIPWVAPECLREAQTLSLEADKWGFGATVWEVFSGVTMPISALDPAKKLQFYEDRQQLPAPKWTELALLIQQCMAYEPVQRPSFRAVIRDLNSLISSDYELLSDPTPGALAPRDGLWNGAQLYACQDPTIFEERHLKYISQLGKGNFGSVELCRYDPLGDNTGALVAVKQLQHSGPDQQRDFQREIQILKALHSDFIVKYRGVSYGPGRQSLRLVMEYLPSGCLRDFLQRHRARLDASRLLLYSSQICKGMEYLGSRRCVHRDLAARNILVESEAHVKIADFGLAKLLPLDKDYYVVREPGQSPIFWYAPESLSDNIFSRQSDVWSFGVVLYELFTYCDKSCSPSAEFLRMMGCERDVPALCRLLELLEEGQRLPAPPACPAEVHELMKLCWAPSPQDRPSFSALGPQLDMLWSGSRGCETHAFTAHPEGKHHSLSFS

[2] = Stability test of crystals (storage at 70° C., 70° C./75% RH, Xe lamp; HPLC related substances and powder X-ray diffraction); conditions: for Physical stability / change in the crystal forms: stored at 70° C. or 70° C.·75% RH for 2 weeks
Description: A sample was stored with light-shielding under the condition of 70° C., 70° C.·75% RH for 2 weeks. The total amount of the related substance after storage was measured using HPLC, and the change in crystal forms was measured by means of powder X-ray diffraction.
The test drug was stored under the following conditions.
Initial (Stored under the cooling conditions): About 5 mg was collected with a 10 mL centrifuge tube and stored in a refrigerator.
70° C. (stored at 70° C.): About 5 mg was collected with a 10 mL centrifuge tube and stored in a mini-jet oven at 70° C. for 14 days.
70° C.·75% RH (stored at 70° C. and 75% relative humidity): About 5 mg was collected with a 10 mL centrifuge tube, a sample was put into a desiccator at 75% relative humidity in the open state, and the desiccator was stored in a mini jet oven at 70° C. for 14 days.
Xe lamp: This product was placed in a plastic Petri dish and stored for 40 hours under a Xe lamp (25° C. RH 60%, total irradiance 1,200,000 lx·h, total near-ultraviolet radiation energy 200 W·h/m^2 or more).
Initial, a product stored at 70° C. and a product stored at 70° C. and 75% RH were dissolved in a mixed solution (1:1) of MeCN for LC/water to exactly 10 mL, which was used as a sample solution.
HPLC; Detector: ultraviolet absorptiometer (wavelength measurement; 254 nm), column: Inertsil ODS-3 (particle diameter 3 μm, 2.1 mm×100 mm), column temperature: 40° C. (column thermostat vessel was used), mobile phase: Liquid A—1000 mL of water was added to perchlorate buffer at pH 2.5 {sodium perchlorate (NaClO4.H2O) (1.40 g) for dissolution, and adjusted to a pH of 2.5 with diluted perchloric acid (dilution of 100 mL of a commercially available 60% perchloric acid solution with 1900 mL of water)}. Liquid B—MeCN for LC, flow rate: 0.2 mL/min, Injection amount: 1 μL, (gradient setting: Liquid B 10% at 0.0 minutes to Liquid B 90% at 35 minutes).
Powder X-ray diffraction; tube: Cu, tube current: 300 mA, tube voltage, 50 kV, sampling width: 0.02°, scan speed: 4°/min, wavelength: 1.54056 angstroms, measured diffraction angle range (2θ): 2.5 to 40°

[3] = Solubility test in 84% aqueous EtOH solution; type: physicochemical
Description: After stirring, the supernatant was filtered and the concentration of the filtrate was quantified by means of HPLC.
HPLC; Columns to be charged: Unison UK Phenyl (manufactured by Imtakt Corporation), particle diameter 3 μm, 4.6 mm×250 mm
Mobile phase: perchlorate buffer at pH 2.5 (0.01 mol/L)^(note)/mixed solution with MeCN for LC (4:1),
Flow rate of mobile phase: about 1.0 mL/min. Detector: ultraviolet absorptiometer (wavelength for measurement: 235 nm), column temperature: 50° C. (column thermostat vessel was used)

[4] = stirred at room temperature in a 84% EtOH solution
Description: The Form A61 crystals were stirred at room temperature and transition of crystal forms was attempted in a 84% EtOH solution.

[5] = Solubility measured with a 80% aqueous EtOH solution; type: physicochemical; conditions: organic solvent or mixture
Description: The solubility was measured with a 80% aqueous EtOH solution. Further, the crystals of 0.5 L-tartrate and lactate were prepared as crystallized from a crystallization solvent described in Tables below.

[6] = 70° C. 75% RH, 2 weeks, Table 1, hydrobromide
[7] = 70° C., 2 weeks, Table 1, hydrobromide
[8] = Initial (stored in a refrigerator), Table 1, hydrobromide
[9] = Xe lump 40H, Table 1, hydrobromide
[10] = 70° C. 75% RH, 2 weeks, Table 1
[11] = Initial (stored in a refrigerator), Table 1

SMILES: NC(=O)c1cnc2[nH]ccc2c1N[C@@H]1[C@@H]2CC3C[C@H]1C[C@@](O)(C3)C2 [Ex. 121, 4-{[(1R,2s,3S,5s,7s)-5-hydroxy-2-adamantyl]amino}-1H-pyrrolo[2,3-b]pyridine-5-carboxamide]
JAK3 inhibitory activity [1]: excellent activity
Stability with respect to temperature and humidity ([2]; crystallized free form): not stable with respect to temperature and humidity even when crystallized

SMILES: Br.NC(=O)c1cnc2[nH]ccc2c1N[C@@H]1[C@@H]2C[C@@H]3C[C@H]1C[C@@](O)(C3)C2 [Form B45, 4-{[(1R,2s,3S,5s,7s)-5-hydroxy-2-adamantyl]amino}-1H-pyrrolo[2,3-b]pyridine-5-carboxamide hydrobromide]
LC: total amount of the related substances [2, 6]: 0.11%
LC: total amount of the related substances [2, 7]: 0.11%
LC: total amount of the related substances [2, 8]: 0.11%
LC: total amount of the related substances [2, 9]: 0.11%
Physical stability / change in the crystal forms [2]: physically stable
Solubility rank among crystal forms [3]: lowest solubility crystal form
Solubility ([3]; 25° C., hydrobromide): 23.7 mg/mL
Solubility ([3]; 35° C., hydrobromide): 29.4 mg/mL
Solubility ([3]; 50° C., hydrobromide): 36.7 mg/mL

SMILES: Br.NC(=O)c1cnc2[nH]ccc2c1N[C@@H]1[C@@H]2C[C@@H]3C[C@H]1C[C@@](O)(C3)C2.O.O [Form B21, 4-{[(1R,2s,3S,5s,7s)-5-hydroxy-2-adamantyl]amino}-1H-pyrrolo[2,3-b]pyridine-5-carboxamide hydrobromide dihydrate]
LC: total amount of the related substances [2, 10]: 0.05%
LC: total amount of the related substances ([2]; 70° C., 2 weeks, Table 1): 0.05%
LC: total amount of the related substances [2, 11]: 0.00%
LC: total amount of the related substances ([2]; Xe lump 40H, Table 1): 0.05%
Solubility ([3]; 25° C.): 36.1 mg/mL
Solubility ([3]; 35° C.): 46.3 mg/mL
Solubility ([3]; 50° C.): 58.2 mg/mL

SMILES: Br.NC(=O)c1cnc2[nH]ccc2c1N[C@@H]1[C@@H]2C[C@@H]3C[C@H]1C[C@@](O)(C3)C2.O [Form B11, 4-{[(1R,2s,3S,5s,7s)-5-hydroxy-2-adamantyl]amino}-1H-pyrrolo[2,3-b]pyridine-5-carboxamide hydrobromide monohydrate]
LC: total amount of the related substances [2, 10]: 0.43%
LC: total amount of the related substances ([2]; 70° C., 2 weeks, Table 1): 0.43%
LC: total amount of the related substances [2, 11]: 0.43%
LC: total amount of the related substances ([2]; Xe lump 40H, Table 1): 0.48%
Solubility ([3]; 25° C.): 35.0 mg/mL
Solubility ([3]; 35° C.): 44.1 mg/mL
Solubility ([3]; 50° C.): 60.1 mg/mL

SMILES: Br.NC(=O)c1cnc2[nH]ccc2c1N[C@@H]1[C@@H]2C[C@@H]3C[C@H]1C[C@@](O)(C3)C2 [hydrobromide, 4-{[(1R,2s,3S,5s,7s)-5-hydroxy-2-adamantyl]amino}-1H-pyrrolo[2,3-b]pyridine-5-carboxamide hydrobromide]
Storage stability in a solid state [2]: excellent storage stability in a solid state

SMILES: NC(=O)c1cnc2[nH]ccc2c1N[C@@H]1[C@@H]2CC3C[C@H]1C[C@@](O)(C3)C2 [Form A01, 4-{[(1R,2s,3S,5s,7s)-5-hydroxy-2-adamantyl]amino}-1H-pyrrolo[2,3-b]pyridine-5-carboxamide monohydrate, reference compound]
Change of crystal on storage ([2]; no humidity at 70° C.): transition to an anhydride in a free form
Solubility [5]: < 10 mg/mL

SMILES: NC(=O)c1cnc2[nH]ccc2c1N[C@@H]1[C@@H]2CC3C[C@H]1C[C@@](O)(C3)C2 [anhydride in a free form, reference compound]
Change of crystal on storage ([2]; with humidity at 70° C.): changed to hydrate

SMILES: Br.NC(=O)c1cnc2[nH]ccc2c1N[C@@H]1[C@@H]2C[C@@H]3C[C@H]1C[C@@](O)(C3)C2 [Form A87, 4-{[(1R,2s,3S,5s,7s)-5-hydroxy-2-adamantyl]amino}-1H-pyrrolo[2,3-b]pyridine-5-carboxamide hydrobromide]
LC: total amount of the related substances [2, 6]: 1.51%
LC: total amount of the related substances [2, 7]: 1.64%
LC: total amount of the related substances [2, 8]: 1.60%
LC: total amount of the related substances [2, 9]: 1.32%
Physical stability / change in the crystal forms [2]: physically stable
Solubility ([3]; 25° C., hydrobromide): 36.8 mg/mL
Solubility ([3]; 35° C., hydrobromide): 46.0 mg/mL
Solubility ([3]; 50° C., hydrobromide): 48.9 mg/mL

The next lines start with results.

LC: total amount of the related substances ([2]; 70° C. 2 W, Table 3): 0.19%
LC: total amount of the related substances ([2]; 70° C. 75% RH 2 W, Table 3): 0.25%
LC: total amount of the related substances ([2]; Initial, Table 3): 0.25%
LC: total amount of the related substances ([2]; Xe lump 40H, Table 3): 0.19%
SMILES: NC(=O)c1cnc2[nH]ccc2c1N[C@@H]1[C@@H]2C[C@@H]3C[C@H]1C[C@@](O)(C3)C2.O=C(O)CCC(=O)O [Form A24, 4-{[(1R,2s,3S,5s,7s)-5-hydroxy-2-adamantyl]amino}-1H-pyrrolo[2,3-b]pyridine-5-carboxamide succinate]

LC: total amount of the related substances ([2]; 70° C. 2 W, Table 3): 0.48%
LC: total amount of the related substances ([2]; 70° C. 75% RH 2 W, Table 3): 0.48%
LC: total amount of the related substances ([2]; Initial, Table 3): 0.49%
LC: total amount of the related substances ([2]; Xe lump 40H, Table 3): 0.79%
SMILES: Cl.NC(=O)c1cnc2[nH]ccc2c1N[C@@H]1[C@@H]2C[C@@H]3C[C@H]1C[C@@](O)(C3)C2 [Form A33, 4-{[(1R,2s,3S,5s,7s)-5-hydroxy-2-adamantyl]amino}-1H-pyrrolo[2,3-b]pyridine-5-carboxamide monohydrochloride]

LC: total amount of the related substances ([2]; 70° C. 2 W, Table 3): 0.10%
LC: total amount of the related substances ([2]; 70° C. 75% RH 2 W, Table 3): 0.10%
LC: total amount of the related substances ([2]; Initial, Table 3): 0.10%
LC: total amount of the related substances ([2]; Xe lump 40H, Table 3): 0.30%
SMILES: Cl.NC(=O)c1cnc2[nH]ccc2c1N[C@@H]1[C@@H]2C[C@@H]3C[C@H]1C[C@@](O)(C3)C2.O [Form A34, 4-{[(1R,2s,3S,5s,7s)-5-hydroxy-2-adamantyl]amino}-1H-pyrrolo[2,3-b]pyridine-5-carboxamide monohydrochloride hydrate]

LC: total amount of the related substances [2, 6]: 0.43%
LC: total amount of the related substances [2, 7]: 0.44%
LC: total amount of the related substances [2, 8]: 0.44%
LC: total amount of the related substances [2, 9]: 0.77%
Physical stability / change in the crystal forms [2]: physically stable
Solubility ([3]; 25° C., hydrobromide): 37.2 mg/mL
Solubility ([3]; 35° C., hydrobromide): 45.5 mg/mL
Solubility ([3]; 50° C., hydrobromide): 53.8 mg/mL
SMILES: Br.NC(=O)c1cnc2[nH]ccc2c1N[C@@H]1[C@@H]2C[C@@H]3C[C@H]1C[C@@](O)(C3)C2 [Form A61, 4-{[(1R,2s,3S,5s,7s)-5-hydroxy-2-adamantyl]amino}-1H-pyrrolo[2,3-b]pyridine-5-carboxamide hydrobromide]
Transition of crystal form [4]: underwent transition to a Form B45 after 4 hours

LC: total amount of the related substances ([2]; 70° C. 75% RH, 2 weeks, Table 1, monohydrobromide): 0.28%
LC: total amount of the related substances ([2]; 70° C., 2 weeks, Table 1, monohydrobromide): 0.34%
LC: total amount of the related substances ([2]; Initial (stored in a refrigerator), Table 1, monohydrobromide): 0.43%
LC: total amount of the related substances ([2]; Xe lump 40H, Table 1, monohydrobromide): 0.76%
SMILES: Br.NC(=O)c1cnc2[nH]ccc2c1N[C@@H]1[C@@H]2C[C@@H]3C[C@H]1C[C@@](O)(C3)C2 [Form A36, 4-{[(1R,2s,3S,5s,7s)-5-hydroxy-2-adamantyl]amino}-1H-pyrrolo[2,3-b]pyridine-5-carboxamide monohydrobromide]
